Data: EPA's ToxValDB 9.5 (doi:10.2903/j.efsa.2014.3801)
Where “and” joins values, the source holds several entries; their conditions need not be identical. Equal entries are not always repeated.

Assays:
[1] = test system: Rattus norvegicus; details: for LD50: acute; for NOAEL: reproduction developmental
[2] = test system: Oncorhynchus mykiss; details: for LC50: acute, duration: 96 hours, mortality; for NOEC: chronic/long-term
[3] = test system: Tagia sp.; details: for LC50: acute, mortality
[4] = test system: Daphnia magna; details: chronic/long-term; duration: 21 days
[5] = test system: Apis mellifera; details: acute, mortality
[6] = test system: Folsomia candida; details: chronic/long-term
[7] = test system: Anas platyrhynchos; details: reproductive
[8] = test system: Colinus virginianus; details: acute, oral
[9] = test system: Typhlodromus pyri; experiment: LR50; higher = less toxic; details: acute; duration: 14 days; mortality

Row | SMILES | LD50 ([1]; F) [mg/kg] | LC50 [2] | NOEC ([2]; duration: 21 days) [mg/L] | NOEC ([2]; duration: 69 days, other) [mg/L] | LC50 [3] [mg/kg] | NOEC ([3]; chronic/long-term) [mg/kg] | NOEC [4] [mg/L] | LD50 ([5]; dermal) [µg/piece] | LD50 ([5]; oral, unspecified) [µg/piece] | LD50 ([1]; oral, mortality) [mg/kg] | NOAEL [1] [mg/kg-day] | NOAEL ([1]; body weight) [mg/kg-day] | NOAEL ([1]; organ weight) [mg/kg-day] | NOEC [6] [mg/kg] | NOAEL [7] [mg/kg] | LD50 [8] [mg/kg] | LC50 ([8]; diet) [mg/kg] | LR50 [9] [g/ha]
1 | O=c1cc(Cl)[nH]nc1-c1ccccc1 [Pyridafol] | 1420 | > 16.2 µg/mL | > 17 | 0.1 | 348 | 3.25 | 5 |  |  |  |  |  |  |  |  |  |  | 
2 | CCCCCCCCSC(=O)Oc1cc(Cl)nnc1-c1ccccc1 [Pyridate] |  | > 1.01 µg/mL and 1.19 µg/mL |  |  | 400 |  |  | > 100 | > 110 | > 2000 | 18.8 | 165 | 3.6 | 112 | 100 | 1270 | > 1250 | > 1360
